In US20120129842A1, “BISTHIAZOLE INHIBITORS OF PRO-MATRIX METALLOPROTEINASE ACTIVATION” (priority 2010, published 2012):
Counter-ions that a name gives are not always drawn.

Key:
[1] = target: T1, proMMP9(20-445;ΔFnII) (SEQ ID NO:6) (Homo sapiens, UniProt P14780, DEL216-390); assay: ThermoFluor binding assay with proMMP9(20-445;ΔFnII); settings: pH 7.0
T1 construct: start methionine (N); made in house; host or cells: E. coli BL21(DE3) RIL
T1 sequence (P14780 with tags, fused parts or gaps DEL216-390): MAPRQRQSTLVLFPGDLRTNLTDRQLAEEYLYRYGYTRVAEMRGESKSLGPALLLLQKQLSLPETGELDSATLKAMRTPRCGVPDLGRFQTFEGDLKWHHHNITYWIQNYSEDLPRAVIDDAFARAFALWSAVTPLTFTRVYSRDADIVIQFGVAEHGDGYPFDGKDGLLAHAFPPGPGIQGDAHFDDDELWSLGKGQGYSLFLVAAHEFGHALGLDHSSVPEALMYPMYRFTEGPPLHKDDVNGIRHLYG
In short: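 proMMP9(20-445;ΔFnII) at 2.8 μM with 50 μM 1,8-ANS in 50 mM HEPES pH 7.0, 100 mM NaCl, 0.001% Tween-20, 2.5 mM MgCl2, 300 μM CaCl2; compounds serially diluted in DMSO. Heated 40–90 °C at 1 °C/min, fluorescence read at 500±25 nm. Tm fit by standard equations; binding fit using DSC/TF-derived thermodynamic parameters.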

[2] = target: T2, proMMP9(67-444;ΔFnII) (SEQ ID NO:5) (Homo sapiens, UniProt P14780, DEL216-390); assay: ThermoFluor binding assay with proMMP9(67-444;ΔFnII); settings: pH 7.0
T2 construct: start methionine (N); made in house; host or cells: E. coli BL21(DE3) RIL
T2 sequence (P14780 with tags, fused parts or gaps DEL216-390): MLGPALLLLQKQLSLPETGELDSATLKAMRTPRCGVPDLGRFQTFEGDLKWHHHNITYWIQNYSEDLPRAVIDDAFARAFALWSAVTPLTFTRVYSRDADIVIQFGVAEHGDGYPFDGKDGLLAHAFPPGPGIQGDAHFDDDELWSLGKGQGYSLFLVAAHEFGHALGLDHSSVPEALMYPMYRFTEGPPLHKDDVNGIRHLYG
In short: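 Thermal shift binding with 3.5 μM proMMP9(67-444;ΔFnII) and 50 μM 1,8-ANS in 50 mM HEPES pH 7.0, 100 mM NaCl, 2.5 mM MgCl2, 300 μM CaCl2, 0.001% Tween-20, with serially diluted compound. Heated 40 to 90° C at 1° C/min; fluorescence-derived Tm fitted using DSC/ThermoFluor thermodynamic parameters.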

[3] = target: T3, full-length proMMP9(1-707) (SEQ ID NO:1) (Homo sapiens, UniProt P14780, R574P); assay: proMMP9/MMP3 P126 Activation Assay; type: biochemical; settings: 20 nM proMMP9, 20 nM MMP3, 80 min 37° C.
T3 construct: made in house; host or cells: HEK293 (proMMP9, secreted); E. coli (MMP3)
Procedure: The reaction volume was 50 μL. […] Reactivity of residual MMP3 towards P-126 substrate was minimal under these conditions.

[4] = target: proMMP13(1-268) (SEQ ID NO:7) (Homo sapiens, UniProt P45452); assay: ThermoFluor binding assay with proMMP13(1-268); parameters: 6xHis (C); made in house; settings: pH 7.0
In short: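 Thermal shift binding with 3.5 μM protein and 25 μM 1,8-ANS in 50 mM HEPES pH 7.0, 100 mM NaCl, 0.001% Tween-20, 2.5 mM MgCl2, 300 μM CaCl2. Samples were heated 40 to 90 °C at 1 °C/min, fluorescence read at 500 nm. Tm shifts across an 11-point DMSO dilution series were fitted with DSC-derived thermodynamic parameters.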

T3 sequence (P14780 20-707 R574P): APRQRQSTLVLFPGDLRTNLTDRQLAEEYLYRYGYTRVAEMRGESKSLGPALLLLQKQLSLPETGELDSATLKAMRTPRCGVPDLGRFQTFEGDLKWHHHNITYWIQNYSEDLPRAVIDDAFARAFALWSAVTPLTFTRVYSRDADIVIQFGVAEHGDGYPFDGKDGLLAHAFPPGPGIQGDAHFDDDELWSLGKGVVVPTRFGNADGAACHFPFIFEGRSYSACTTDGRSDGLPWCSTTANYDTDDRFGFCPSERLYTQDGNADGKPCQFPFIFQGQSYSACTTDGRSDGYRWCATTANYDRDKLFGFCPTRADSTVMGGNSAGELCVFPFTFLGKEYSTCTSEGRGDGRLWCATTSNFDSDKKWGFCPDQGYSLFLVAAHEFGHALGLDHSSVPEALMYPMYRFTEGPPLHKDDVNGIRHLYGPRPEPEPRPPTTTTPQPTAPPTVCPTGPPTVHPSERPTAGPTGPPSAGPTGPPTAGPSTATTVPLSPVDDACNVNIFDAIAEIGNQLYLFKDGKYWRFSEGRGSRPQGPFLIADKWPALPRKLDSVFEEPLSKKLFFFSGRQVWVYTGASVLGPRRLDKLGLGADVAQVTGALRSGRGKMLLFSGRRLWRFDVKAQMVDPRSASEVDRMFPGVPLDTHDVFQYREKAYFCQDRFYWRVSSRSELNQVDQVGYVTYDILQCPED

SMILES | Kd [1] | Kd [2] | IC50 [3] | Kd [4]
Cc1nc(CN(C)CCN(C)C)sc1-c1csc(Nc2cc(C(N)=O)ccc2OC(C)C)n1 [Example 133, 3-(2′-{[(2-Dimethylamino-ethyl)-methyl-amino]-methyl}-4′-methyl-[4,5]bithiazolyl-2-ylamino)-4-isopropoxy-benzamide.TFA] | 0.97 µM | 4 µM | 0.66 µM | 3.8 µM
Cc1nc(CN(C)C)sc1-c1csc(Nc2cc(C(N)=O)ccc2OC(C)C)n1 [Example 129, 3-(2′-Dimethylaminomethyl-4′-methyl-[4,5′]bithiazolyl-2-ylamino)-4-isopropoxy-benzamide.TFA] | 0.72 µM | 4.7 µM | 1.2 µM | 5.1 µM
Cc1nc(C(=O)O)sc1-c1csc(Nc2cc(C(N)=O)ccc2OC(C)C)n1 [Example 100, 2-(5-Carbamoyl-2-isopropoxy-phenylamino)-4′-methyl-[4,5′]bithiazolyl-2′-carboxylic acid] | 0.76 µM | 0.32 µM | 0.22 µM | 1.4 µM
CCOc1ccc(C(N)=O)cc1Nc1nc(-c2sc(C(=O)N3CCCN(C(C)C)CC3)nc2C)cs1 [Example 116, 4-Ethoxy-3-[2′-(4-isopropyl-[1,4]diazepane-1-carbonyl)-4′-methyl-[4,5]bithiazolyl-2-ylamino]-benzamide.TFA] | 2.7 µM | 1.4 µM | 0.5 µM | 6.7 µM
COc1ccc([N+](=O)[O-])cc1Nc1nc(-c2sc(NC(C)=O)nc2C)cs1 [Example 68, N-[2-(2-Methoxy-5-nitro-phenylamino)-4′-methyl-[4,5′]bithiazolyl-2′-yl]-acetamide.TFA] | 0.32 µM | 0.55 µM | 0.097 µM | 8.4 µM
Cc1nc(C)c(-c2csc(Nc3cc(C(N)=O)ccc3OC(C)C)n2)s1 [Example 1, 3-(2′,4′-Dimethyl-[4,5′]bithiazolyl-2-ylamino)-4-isopropoxy-benzamide.HBr] | 0.026 µM | 0.17 µM | 0.16 µM | 0.14 µM
Cc1nc(C)c(-c2csc(Nc3cc(S(N)(=O)=O)ccc3OC(F)(F)F)n2)s1 [Example 144, 3-(2′,4′-Dimethyl-[4,5′]bithiazolyl-2-ylamino)-4-trifluoromethoxy-benzenesulfonamide.HCl] | 1 µM | 2 µM | 1.6 µM | 3.6 µM
Cc1nc(C(=O)NC2CCN(C)CC2)sc1-c1csc(Nc2cc(C(N)=O)ccc2OC(C)C)n1 [Example 113, 2-(5-Carbamoyl-2-isopropoxy-phenylamino)-4′-methyl-[4,5′]bithiazolyl-2′-carboxylic acid (1-methyl-piperidin-4-yl)-amide.TFA] | 1.5 µM | 1.9 µM | 0.57 µM | > 57 µM
Cc1nc(C(=O)NC2CCN(C(C)C)CC2)sc1-c1csc(Nc2cc(C(N)=O)ccc2OC(C)C)n1 [Example 111, 2-(5-Carbamoyl-2-isopropoxy-phenylamino)-4′-methyl-[4,5′]bithiazolyl-2′-carboxylic acid (1-isopropyl-piperidin-4-yl)-amide.TFA] | 0.086 µM | 0.29 µM | 0.081 µM | 0.36 µM
CCOc1ccc(S(N)(=O)=O)cc1Nc1nc(-c2sc(C)nc2C)cs1 [Example 70, 3-(2′,4′-Dimethyl-[4,5′]bithiazolyl-2-ylamino)-4-ethoxy-benzenesulfonamide.HCl] | 0.25 µM | 0.41 µM | 0.46 µM | 1.1 µM
COc1ccc(C#N)cc1Nc1nc(-c2sc(C)nc2C)cs1 [Example 39, 3-(2′,4′-Dimethyl-[4,5′]bithiazolyl-2-ylamino)-4-methoxy-benzonitrile.TFA] | 1.1 µM | 1.4 µM | 0.76 µM | > 95 µM
CC(=O)Nc1nc(C)c(-c2csc(Nc3cc(C(N)=O)ccc3Cl)n2)s1 [Example 26, 3-(2′-Acetylamino-4′-methyl-[4,5′]bithiazolyl-2-ylamino)-4-chloro-benzamide.HBr] | 8.9 µM | 3 µM | > 20 µM | 84 µM
CCOc1ccc(C(=O)O)cc1Nc1nc(-c2sc(N)nc2C)cs1 [Example 46, 3-(2′-Amino-4′-methyl-[4,5′]bithiazolyl-2-ylamino)-4-ethoxy-benzoic acid.HBr] | 1.4 µM | 1.2 µM | 1.1 µM | 5.5 µM
CNC(=O)c1ccc(OC)c(Nc2nc(-c3sc(N)nc3C)cs2)c1 [Example 66, 3-(2′-Amino-4′-methyl-[4,5′]bithiazolyl-2-ylamino)-4-methoxy-N-methyl-benzamide.TFA] | 2.8 µM | 1.8 µM | 4.9 µM | 2.6 µM
COC(=O)c1ccc(OC)c(Nc2nc(-c3sc(N)nc3C)cs2)c1 [Example 86, 3-(2′-Amino-4′-methyl-[4,5′]bithiazolyl-2-ylamino)-4-methoxy-benzoic acid methyl ester TFA] | 1.2 µM | 0.2 µM | 0.61 µM | 3.4 µM
Cc1nc(C(=O)N2CCN(C)CC2)sc1-c1csc(Nc2cc(C(N)=O)ccc2OC(C)C)n1 [Example 101, 4-Isopropoxy-3-[4′-methyl-2′-(4-methyl-piperazine-1-carbonyl)-[4,5′]bithiazolyl-2-ylamino]-benzamide.TFA] | 0.29 µM | 1.1 µM | 0.17 µM | 0.51 µM
CCOc1ccc(C(N)=O)cc1Nc1nc(-c2sc(C(=O)N3CCN(C(C)C)CC3)nc2C)cs1 [Example 118, 4-Ethoxy-3-[2′-(4-isopropyl-piperazine-1-carbonyl)-4′-methyl-[4,5]bithiazolyl-2-ylamino]-benzamide.TFA] | 0.64 µM | 1.2 µM | 1.1 µM | 5.5 µM
COc1ccc(S(C)(=O)=O)cc1Nc1nc(-c2sc(NC(C)=O)nc2C)cs1 [Example 74, N-[2-(5-Methanesulfonyl-2-methoxy-phenylamino)-4′-methyl-[4,5]bithiazolyl-2′-yl]acetamide.HBr] | 1.8 µM | 0.5 µM | 2.5 µM | 2.4 µM
COc1ccc(S(C)(=O)=O)cc1Nc1nc(-c2sc(N)nc2C)cs1 [Example 75, N^2-(5-Methanesulfonyl-2-methoxy-phenyl)-4′-methyl-[4,5′]bithiazolyl-2,2′-diamine.HBr] | 1.1 µM | 0.6 µM | 1.6 µM | 1.5 µM
Cc1nc(C)c(-c2csc(Nc3cc(S(C)(=O)=O)ccc3OC(C)C)n2)s1 [Example 45, (2′,4′-Dimethyl-[4,5′]bithiazolyl-2-yl)-(2-isopropoxy-5-methanesulfonyl-phenyl)-amine.TFA] | 0.24 µM | 0.98 µM | 0.83 µM | 0.2 µM
Cc1nc(CN2CCCN(C)CC2)sc1-c1csc(Nc2cc(C(N)=O)ccc2OC(C)C)n1 [Example 126, 4-Isopropoxy-3-[4′-methyl-2′-(4-methyl-[1,4]diazepan-1-ylmethyl)-[4,5′]bithiazolyl-2-ylamino]-benzamide.TFA] | 1.1 µM | 4.7 µM | 0.77 µM | 11 µM
CCOc1ccc(C(N)=O)cc1Nc1nc(-c2sc(C(=O)N3CCN(CC)CC3)nc2C)cs1 [Example 117, 4-Ethoxy-3-[2′-(4-ethyl-piperazine-1-carbonyl)-4′-methyl-[4,5]bithiazolyl-2-ylamino]-benzamide.TFA] | 0.68 µM | 2 µM | 0.67 µM | 6.9 µM
CCN1CCCN(C(=O)c2nc(C)c(-c3csc(Nc4cc(C(N)=O)ccc4OC(C)C)n3)s2)CC1 [Example 114, 3-[2′-(4-Ethyl-[1,4]diazepane-1-carbonyl)-4′-methyl-[4,5′]bithiazolyl-2-ylamino]-4-isopropoxy-benzamide.TFA] | 0.69 µM | 0.96 µM | 0.31 µM | 1.8 µM
